# Experimental data from patent EP1293213A1, “PREVENTIVES/REMEDIES FOR POSTOPERATIVE STRESS” (Japan Tobacco Inc., priority 2000, dated 2001).
# Key:
# corticosterone = test: Test 2: Effects on a rise in releasing of corticosterone caused by surgical stress; format: in vivo, mouse; settings: mice
# Experimental: Test 2 Effects on a rise in releasing of stress hormone caused by surgical stress - effects on a rise in releasing of corticosterone, adrenocortical hormone.
# Mice (ddY Slc male, 7weeks of age) handled by being fastened up before the day of experiment were divided equally into groups according to their weights on the experimental day (the number of mouse in one group was 6 to 7). Mice were anesthetized by i.p. injections of 2.5mg/mouse pentobarbital Na(Nembutal(brand name)), Dainihonseiyaku) and, 20 minutes later, the solvent(0.1N HCl/saline) or test medicine CP154,526HCl(0.3, 1, 3 or 10 mg/kg) were intravenously injected into the tail veins of mice at a dose of 10ml/Kg weight of mouse. 5 Minutes after injection, a midline incision was made in the abdomen, and in about one to two minutes movable bowel was draped externally, and then, abdominal part was covered with wet absorbent cotton with saline to prevent from drying. In 30 minutes after incision, while the bowel was draped externally, mice were decapitated and blood samples were collected into siliconized tubes, prechilled on ice, which contained 20ul of 100mM EDTA. Blood samples were centrifuged at 7,000 x g and 4°C for 20 minutes and the supernatant was obtained. Negative control mice not subjected to surgical stress were decapitated and blood samples were collected in 35 minutes after injection of the solvent alone. […]
# [1] = system: adrenocorticotropic hormone (ACTH); test: Test 1: Effects on a rise in releasing of ACTH caused by surgical stress; format: in vivo, mouse; settings: mice
# Experimental: Test 1 Effects on a rise in releasing of stress hormone caused by surgical stress - effects on a rise in releasing of adrenocorticotropic hormone (ACTH)
# Mice (ddY Slc male, 7 weeks of age) handled by being fastened up before the day of experiment were divided equally into groups according to their weights on the experimental day (the number of mouse in one group was 10). Mice were anesthetized by i.p. injection of 2.5mg/mouse pentobarbital Na (Nembutal(brand name), Dainihonseiyaku) and, 5 minutes later, the solvent(0.1N HCl/saline)alone or test medicine CP154,526HCl(0.3, 1 or 3 mg/kg)were intravenously injected into the tail veins of mice at a dose of 10ml/Kg weight of mouse. 10 minutes after injection, a midline incision was made in the abdomen and in about two minutes movable bowel was draped externally. Then 25 minutes after incision, 0.6ml of blood sample was collected from aorta abdominalis for 1 minute gradually by using prechilled syringes (needle size 25G) which were wetted with 100mM EDTA solution. Control mice not subjected to surgical stress were given medication by the injection of the solvent alone 5 minutes after anesthesia. […] Blood samples were centrifuged at 7,000 x g and 4°C for 20 minutes and the concentration of ACTH in supernatant was determined by IRMA method using Allegro ACTH kit (Nihon Medi+Physics Co., Ltd.). […]
# [2] = system: adrenocorticotropic hormone(ACTH); test: Experiment 2: Model of surgical stress in mouse (inhibitory action of rise in releasing of ACTH); format: in vivo; settings: ddY male mice, intravenous, surgical stress (abdominal incision, bowel draped externally)
# Experimental: Experiment 2: Model of surgical stress in mouse (Inhibitory action of rise in releasing of adrenocorticotropic hormone(ACTH))
# (§1) ddY male mice(SLC, 7 to 8 weeks of age: weight 34 to 42g)were used for experiments. Mice were housed before use under controlled lighting condition (12hours light and 12hours dark cycle(lights on from 8:00 to 20:00) at 23±3 °C and 55±15% humidity, and maintained with basal diet and water ad labium. On the experimental day, mice were moved to experimental room and habituated before experiment for more than 1 hour. On the day before experiment, mice were previously handled (by being fastened up for 10 to 15 seconds like the case of i.p. injections) to habituate to the stress caused by handling.
# Medicine and administration:
# Test compound to be evaluated was dissolved in and diluted with physiological saline(Otsuka), 5% mannitol or 0.1N NaHCO3/saline. Then the test sample solution was given into veins of mice at a dose of 10ml/Kg body weight. The same solvent alone mentioned above was given into veins of control mice group at a dose of 10ml/Kg weight.
# Mice were anesthetized by injection of pentobarbital Na (2.5mg/mouse i.p.) and after 15 minutes the solvent alone or the solution containing test sample to be evaluated were intravenously injected on the tails of mice at a dose of 10ml/ Kg weight of mouse. After more 10 minutes a midline incision was made in the abdomen and in two minutes bowel was draped externally. Then 2.5 minutes after incision 0.6ml of blood samples were collected from main vein abdominalis for 1 minute gradually by using prechilled syringes(needle size 25G), which were wetted with 100mM EDTA solution. Control mice not subjected to surgical stress were decapitated and blood samples were collected at 13 to 14 minutes after medication of solvent alone and to them added 20ul of 100mM EDTA. Blood samples collected were put into siliconized tubes and centrifuged at 10,000rpm and 4°C for 5 minutes. The concentration of ACTH in supernatant was determined by IRMA method using Allegro ACTH kit (Nihon Medi+Physics Co.,Ltd.). […]
# [3] = biological target: T1, CRF type I(CRF-I) receptor (Homo sapiens, UniProt P34998); test: in vitro Binding Assay using membrane fraction of recombinant cell (6EF2B) expressing CRF receptor gene (SPA method); settings: 125I-Tyr0-human/rat CRF, membrane fraction of 6EF2B cells (derived from Hela cell), read-out: IC50(nM) [experiment 1]
# T1 construct: expressed in transfected cells; membrane fraction
# T1 sequence (P34998 24-415): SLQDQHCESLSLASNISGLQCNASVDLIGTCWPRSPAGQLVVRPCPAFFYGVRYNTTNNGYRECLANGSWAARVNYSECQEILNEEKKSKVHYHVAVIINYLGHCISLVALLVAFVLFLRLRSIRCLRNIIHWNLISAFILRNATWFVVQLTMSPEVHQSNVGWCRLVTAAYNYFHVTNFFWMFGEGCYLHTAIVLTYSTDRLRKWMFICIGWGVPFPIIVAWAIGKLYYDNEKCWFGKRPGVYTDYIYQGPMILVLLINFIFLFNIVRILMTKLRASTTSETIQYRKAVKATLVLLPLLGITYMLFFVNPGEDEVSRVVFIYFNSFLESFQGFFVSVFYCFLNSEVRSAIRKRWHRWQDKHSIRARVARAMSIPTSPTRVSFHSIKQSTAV
# Experimental: Experiment 1 : in vitro Binding Assay using membrane fraction of recombinant cell (6EF2B) with expression of CRF receptor gene
# Preparation of membrane fraction:
# Recombinant cells 6EF2B (derived from Hela cell), which express CRF type I(CRF-I) receptor gene stably, were cultivated in Eagle's MEM medium(10%FCS, 400ug/ml G418.1/100 penicillin/streptomycin). After cultivation, cells were suspended in 50mM Tris-HCl (pH7.2) solution containing 1mM EDTA and incubated at 25°C for 15 to 30 minutes. After that, every step was carried out at 4°C. Treated cells were suspended in 50mM Tris-HCl(pH7.2) containing 10% sucrose and homogenized by a Polytron(PT10-35 model). This step of homogenization was carried out at 25,000 rpm for 15 to 20 seconds and repeated twice or three times. In the course of this step the homogenates were inspected under a microscope. Homogenates were centrifuged at 600 x g for 5 minutes and the supernatant was centrifuged again at 40,000 x g for 30 minutes. The obtained pellet was resuspended in 50mM Tris-HCl(10mM MgCl2, 2mM EGTA) and the suspension was centrifuged again at 40,000 x g for 30minutes. The obtained pellet was used for further experiments as membrane fraction. The membrane fraction was diluted with 50mM Tris-HCl(10mM MgCl2, 2mM EGTA, 0.1%BSA, 100 kallikrein units/ml aprotinin, 0.1mM bacitracin, pH7.2) to have the concentration of 1mg/ml and then stored at -80°C. DC protein assay kit (produced by Bio-RAD) was used to determine the protein concentration of the membrane fraction.
# Binding Assay using CRF-I receptor by means of SPA method:
# Compounds to be evaluated were stored at the concentration of 10mM in DMSO. […] The assay buffer consisted of 50mM Tris-HCl (pH7.7) containing 100mM NaCl, 5mM KCl, 2mM CaCl2, 0.1% BSA, 0.1% bacitracin, 0.05% FCS and 5% horse serum. The reactions were carried out in 96-well Optiplate(Packard) in which to 50ul of the test substance solution, were added 50ul of WGA-beads & membrane fraction (50 to 100ug membrane fraction/10mg beads/ml) pre-coupled by stirring (rotating with 10rpm) at room temperature for 2 hours on the day of experiment, and 100ul of 0.4nM ^125I-Tyr^0-human/rat CRF(NEX-216, Dupont NEN), to be made up 200ul as total volume, and the mixture was incubated at 25°C for 3 hours. By the way, the step of pre-coupling was carried out by using beads solution (20mg/ml) suspended in 50mM Tris-HCl buffer solution (pH7.2) and after stirring beads were washed twice with Tris-HCl buffer and once with assay buffer by centrifugation (3000 rpm, 5 minutes). In order to measure total binding and non-specific binding activity, assay buffer solution and 1uM(final conc.) cold human /rat CRF(C-3042; SIGMA) solution were used respectively in place of test substance solution. After incubation, the mixture was centrifuged at 23 °C, 2,500 rpm for 5 minutes and the scintillation was counted with Top Count (Packard). An influence of color quench was corrected by standard curve made by using tartrazine as a quencher. Evaluation of samples was carried out several times.
# corticosterone(CORT) = test: Experiment 3: Model of surgical stress in mouse (inhibitory action of rise in releasing of CORT); format: in vivo; settings: ddY male mice, intravenous, blood 30 minutes after incision
# Experimental: Experiment 3: Model of surgical stress in mouse (Inhibitory action of rise in releasing of corticosterone(CORT))
# as §1, with “7” for “7 to 8”, “35” for “34”, “41g)were used.” for “42g)were used for experiments.”, “humidity 55±15%,” for “55±15% humidity,”, “day, after mice were weighted, diet was removed from mice just before experiments to eliminate the effects of food intake on experiments. Then,” for “day,”, “handling. Mice were divided into groups according to their weights on the experimental day.” for “handling.”
# Medicine applied and method of administration: […]
# Mice were anesthetized by injections of pentobarbital Na (2.5mg/mouse i.p.) and after 20 minutes the solvent alone or the solution containing test sample to be evaluated were intravenously injected into the tail veins of mice at a dose of 10ml/Kg weight. […]
# The concentration of CORT was determined by using Corticosterone Double Antibody (RIA measurement kit of CORT; ICN Pharmaceuticals, Inc.). […]
SMILES,"increase of corticosterone concentration in plasma (corticosterone; i.v. 0.3, 1, 3 or 10 mg/kg, surgical stress, viscera exposed 30 minutes, dose-dependently (Fig. 2))","dose showing statistically significant inhibitory action on increase of corticosterone concentration in plasma (corticosterone; i.v., surgical stress (Fig. 2))","increase of ACTH concentration in plasma ([1]; i.v. 0.3, 1 or 3 mg/kg, surgical stress, dose-dependently (Fig. 1))","dose showing statistically significant inhibitory action on increase of ACTH concentration in plasma ([1]; i.v., surgical stress (Fig. 1))",Inhibitory action on ACTH release (mg/kg) [experiment 2] [2],IC50 [3],Inhibitory action on CORT release (mg/kg) [experiment 3] (corticosterone(CORT))
"CCCCN(CC)c1nc(C)nc2c1c(C)cn2-c1c(C)cc(C)cc1C.Cl [CP-154,526 HCl, N-butyl-N-[2,5-dimethyl-7-(2,4,6-trimethylphenyl)-7H -pyrrolo[2,3-d]pyrimidine-4-yl]-N-ethylamine chloride]",inhibited,not less than 10 mg/Kg,inhibited,not less than 1 mg/Kg,,,
"CCc1cc(S(=O)(=O)N(CC)CC)cc(NC(=O)c2cc(Cl)c([O-])c(Cl)c2)c1OC.[K+] [Example 7, potassium 2,6-dichloro-4-(N-(3-ethyl-5-diethylsulfamoyl-2-methoxyphenyl)carbamoyl)phenoxide]",,,,,10 to 30 mg/kg,263 nM,10 to 30 mg/kg
